# Test results as given in patent publication US20250009790A1, “METHODS FOR INDUCING VASODILATION” (THE FLOREY INSTITUTE OF NEUROSCIENCE AND MENTAL HEALTH, priority 2021, published 2025).
# Entries after “also recorded” stand apart in the source; their conditions may differ.
# Assays:
# [1] = molecular target: T1, CGRP receptors (Rattus norvegicus, UniProt Q63118+Q9JJ74); test: Zinc bis(histidinate)-induced cutaneous vasodilation after CGRP receptor antagonist pre-treatment (LDF); assay type: in vivo; details: rat hind paw; BIBN4096 3 mg/kg i.v. pre-treatment before Zn-bis-His 3, 10 and 30 mg/kg i.v.
# T1 construct: from tissue; host or cells: live anaesthetized rat, hind-paw skin vasculature (in vivo)
# T1 sequence (Q63118 24-464): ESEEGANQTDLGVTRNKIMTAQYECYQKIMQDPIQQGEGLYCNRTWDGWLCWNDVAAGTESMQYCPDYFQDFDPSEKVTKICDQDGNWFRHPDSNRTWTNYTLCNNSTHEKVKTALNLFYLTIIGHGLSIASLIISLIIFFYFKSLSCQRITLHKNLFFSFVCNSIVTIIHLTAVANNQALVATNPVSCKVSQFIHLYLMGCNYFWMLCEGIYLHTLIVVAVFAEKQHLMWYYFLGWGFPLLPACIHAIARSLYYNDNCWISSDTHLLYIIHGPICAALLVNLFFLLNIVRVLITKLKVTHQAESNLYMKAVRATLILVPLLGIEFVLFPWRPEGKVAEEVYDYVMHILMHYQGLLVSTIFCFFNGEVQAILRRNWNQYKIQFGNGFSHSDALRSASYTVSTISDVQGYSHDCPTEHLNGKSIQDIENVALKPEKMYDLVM
# T1 sequence (Q9JJ74 27-148): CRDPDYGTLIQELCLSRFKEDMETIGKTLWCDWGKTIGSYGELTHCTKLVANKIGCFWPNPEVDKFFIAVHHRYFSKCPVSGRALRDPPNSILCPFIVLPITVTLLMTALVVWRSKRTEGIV
# Experimental: (§1) Rats were anaesthetized with urethane (2 g/kg i.p.) after light anaesthesia with inhalation of 5% isoflurane. A laser Doppler probe (OxyFlo probe MSP300XP; ADI Blood Flowmeter) was placed on one hind paw (hair removed with depilatory cream). The animal was allowed to stabilize for 30 min to establish baseline parameters. A single i.v. dose of zinc bis(histidinate) was then administered at 3 mg/kg. The haemodynamic and cutaneous blood flow measurements by laser Doppler flow (LDF) were recorded continuously for 15 min. Then, the effects of 10 mg/kg and 30 mg/kg doses of zinc bis(histidinate) were tested.
# In order to better understand the effect of zinc bis(histidinate) on cutaneous blood flow, vasodilation mediated by sensory nerves was blocked by pre-treatment of the rat with a CGRP (calcitonin gene-related peptide) receptor antagonist. A dose of 3 mg/kg BIBN4096 (olcegepant, a known CGRP receptor antagonist was administered intravenously by slow infusion over 10 minutes prior to subsequent administration of zinc bis(histidinate) and measurement of cutaneous blood flow by LDF as described in Example 2.
# [2] = tested on: rat hind paw; test: Cutaneous blood flow by laser Doppler flow in anaesthetized rat hind paw; assay type: in vivo; details: Zn-bis-His 3, 10 and 30 mg/kg i.v., L-His 67 mg/kg i.v.
# Experimental: For in vivo measurements of cutaneous blood flow, an average of 3 s consecutive values calculated every 5 s were computed by LabChart software and the data were transformed as percentage of baseline (an average of 1.5 min recording before each dose). The area under the curve (AUC) for change from baseline values was calculated in Prism 8 software. MAP, hindquarter flow and conductance were taken immediately before and every 5 min after a single dose of treatment.
# as §1
# [3] = tested on: sheep during cardiopulmonary bypass; details: cited from earlier work
# [4] = tested on: rat mesenteric arteries; test: Relaxation of isolated rat mesenteric arteries contracted with U46619 (myograph); assay type: cell-based; details: arteries contracted with thromboxane mimetic U46619
# Source text: Functional in vitro protocols in isolated arteries. Human internal mammary artery and saphenous vein or a range of vessels from rats and mice (left main or anterior descending coronary arteries [250-400 μm internal diameter, i.d.], second order pulmonary interlobar arteries [300-600 μm i.d.], second or third order mesenteric arteries [200-350 μm i.d.], interlobar renal arteries [250-350 μm i.d.], saphenous arteries or veins [300-600 μm i.d.]), or the thoracic aorta were dissected and placed in ice-cold PSS-A with the following composition (mmol/L, mM): NaCl 119; KCl 4.69; MgSO4·7H2O 1.17; KH2PO4 1.18; glucose 5.5; NaHCO3 25; CaCl2·6H2O 2.5 saturated with carbogen (O2 95%; CO2 5%) at pH 7.4. In addition, rat middle cerebral (250-400 μm i.d.) and basilar (250-450 μm i.d.) arteries were used and for these vessels the PSS-A contained 1.5 mM CaCl2 to minimize the occurrence of spontaneous contractions.
# After isolation of vessels, ˜2 mm length segments of arteries were mounted in myograph chambers (Model 610M and 620M; Danish Myo Technology, Denmark) containing PSS-A at 37° C. for isometric force measurement as described previously. Contractile and relaxation responses using rat and mice isolated vessels were recorded with LabChart 7 and a PowerLab 4/30 A/D converter (AD Instruments Pty Ltd, Australia) while those including human isolated vessels were recorded with LabChart 8 (AD Instruments) and Myodaq and Myodata 2.01 (Maastricht University, Maastricht, Netherlands). To normalize the basal conditions, the vessels were passively stretched according to a normalization protocol and adjusted to a diameter setting of 90% of that determined for an equivalent transmural pressure of 100 mmHg (30 mmHg for veins). After allowing the tissues to equilibrate for 30 min, the arteries were exposed to a potassium depolarizing solution (124 mM K^+ replacing Na^+ in PSS; termed KPSS) and noradrenaline (10 μM) for 2 min (chemicals, their source and preparation are provided in the online supplement). A second exposure to KPSS solution (only) was used to provide a reference contraction.
# Five structurally dissimilar zinc delivery agents (zinc pyrithione, zinc disulfiram, clioquinol, Zn(DTSM) and zinc bis(histidinate)) were administered to rat mesenteric arteries according to the protocols above and the extent to which the arteries contracted were recorded. Acetylcholine and clioquinol were also administered and contractions recorded.
# [5] = Mean arterial pressure in anaesthetized rat (carotid artery catheter); assay type: in vivo; details: bolus i.v. 3, 10 and 30 mg/kg, measured for 10 minutes
# Experimental: In vivo blood pressure and flow measurement. Rats and mice were anaesthetized by inhalation of 5% isoflurane (in O2) followed by i.p. injection of pentobarbitone in rats (60 mg/kg; TROY Laboratories, NSW, Australia, maintained by top up doses of 10-20 mg/kg i.v.) or i.p. injection of urethane (2.5 g/kg; Sigma, maintained by top up doses of 0.05-0.1 g/kg i.v.). Animals were placed on a homeostatic blanket system to maintain body temperature at 37±1° C. Lignocaine (1% s.c.) was injected for placement of a tracheotomy tube (for mechanical ventilation), carotid artery and jugular vein catheters.
# All drug treatments were administered via the jugular vein catheter. Pulsatile blood pressure, mean arterial pressure (MAP) and heart rate (HR; beats/min) were measured via the carotid artery catheter filled with heparinized (10 U/ml; Pfizer, NY, USA) saline 0.9% and connected to a pressure transducer (Argon Medical Devices, Athens, Greece) and the output was recorded with LabChart 7 and a Powerlab 8SP (AD Instruments). […]
# An increase in cutaneous blood flow associated with vasorelaxation typically results in a decrease in arterial pressure. Mean arterial pressure in a rat after administration of zinc bis(histidine) (3 mg/kg, 10 mg/kg or 30 mg/kg) or L-histidine (67 mg/kg) was measured by a pressure transducer attached to a catheter inserted in carotid artery as described in Example 2.
# [6] = tested on: ovine model of cardiopulmonary bypass; test: Ovine cardiopulmonary bypass with intra-operative zinc bis(histidinate) infusion; assay type: in vivo; details: sheep on CPB (2 h); 3, 10 and 30 mg/kg infusion i.v. every 20 min
# Source text: Two merino ewes (35-50 kg bodyweight) were housed in individual metabolic cages with access to 5 litres of water and 800 g of oaten chaff daily. The sheep underwent a preparatory surgical procedure under isoflurane anaesthesia for the implantation of a transit-time flow probe around the renal artery for measurement of renal blood flow. Fibre-optic probes were inserted into the cerebral cortex, renal cortex and renal medulla for measurement of tissue perfusion, pO2 and temperature (see Calzavacca et al., 2015, Am J Physiol Regul Integr Comp Physiol 308, R832-839). Catheters were inserted into the renal and jugular veins, carotid artery and bladder. The experiments were undertaken five days later. Intra-operative analgesics and antibiotics were administered as described previously (Lankadeva et al., 2019, Kidney Int 95 1338-1346; Evans et al., 2020, Am J Physiol Regul Integr Comp Physiol 318, R206-R213; Lankadeva et al., 2021, Acta Physiologica doi.org/10.1111/apha.13596, e13596). Mean arterial pressure, renal blood flow, cerebral cortical, renal cortical and renal medullary tissue perfusion, and temperature were continuously recorded across a series of experimental periods. Arterial, mixed venous and renal venous blood samples were collected every 30 min for blood oximetry and biochemistry (ABL systems 625, Copenhagen, Denmark).
# During the first 30 minutes, sheep were awake and unrestrained in their home metabolic cage. Anaesthesia was induced with sodium thiopental (15 mg/kg) and after endotracheal intubation, maintained on isoflurane (2.0%-2.5%) via an artificial ventilator prior to cardiopulmonary bypass or via a membrane oxygenator during cardiopulmonary bypass (FiO2: 60%). This FiO2 was chosen because it is standard during cardiac surgery at the inventors affiliated clinical centre. From the onset of anaesthesia, sheep received a maintenance infusion of compound sodium lactate (2 mL/kg/h; Baxter, NSW, Australia) for the entire duration of the experiment. Once stable anaesthesia was attained, a second experimental period (30 minutes) commenced. Cardiopulmonary bypass was then achieved at a target pump flow of 80 mL/kg/min, a target MAP of 65 mmHg, and a target body temperature of 34.5° C. The prefusion circuit was primed with 300-500 mL of blood from a donor animal, 1 g cefazolin (AFT Pharmaceuticals, NSW, Australia), 50 mL mannitol (20% wt/vol Osmitrol, Baxter, NSW, Australia) and 10 000 IU heparin, made up to 1.3 L with compound sodium lactate. Metaraminol (Metaraminol Montrose, Montrose Life Sciences, NSW, Australia) was administered in boluses of ˜0.25 mg (using a 0.5 mg/mL solution) only in cases where increasing pump flow was not sufficient to attain the target mean arterial pressure during cardiopulmonary bypass. Once stable cardiopulmonary bypass was attained, the sheep was maintained for ˜2 hours before starting a zinc bis(histidinate) infusion (18 mg/ml solution made freshly in 0.45% saline solution and filtered). For the first 20 min, volume equivalent to 3 mg/kg zinc bis(histidinate) was infused, followed by 20 minute of 10 mg/kg and then 20 min of 30 mg/kg zinc bis(histidinate). Plasma was collected every 30 min following the start of anaesthesia. Zinc levels in plasma were analysed using inductively coupled plasma mass spectroscopy (ICP-MS).
# [7] = listed as Zinc bis(histidinate)
compound,measurement,setting,value
"NCCCC[C@H](NC(=O)[C@@H](Cc1cc(Br)c(O)c(Br)c1)NC(=O)N1CCC(N2Cc3ccccc3NC2=O)CC1)C(=O)N1CCN(c2ccncc2)CC1 [BIBN4096, olcegepant]","Effect on zinc bis(histidinate)-induced vasodilation (area under the vasodilation curve, LDF)",[1],reduction in vasodilation; also recorded: attenuated the effect
"N[C@@H](Cc1c[nH]cn1)C(=O)O [L-histidine, reference compound]",Cutaneous blood flow (laser Doppler flux),[2],did result in the same increase
same,Cutaneous blood flow (laser Doppler flux),[2]; listed as L-His,did not cause an increase in cutaneous blood flow
C[C@H](N)[C@H](O)c1cccc(O)c1 [Metaraminol],Systemic vascular conductance,[3],increased systemic vascular conductance
CNC([S-])=NN=C(C)C(C)=NN=C([S-])NC.[Zn+2] [Zn(DTSM)],Relaxation of rat mesenteric arteries,[4],showed relaxation
Oc1c(I)cc(Cl)c2cccnc12 [clioquinol],Relaxation of rat mesenteric arteries,[4],showed relaxation
N[C@@H](Cc1c[nH]cn1)C(=O)O [histidine],Relaxation of rat mesenteric arteries,[4],did not provide the same relaxation; also recorded: little relaxation
[Zn] [zinc],Relaxation of rat mesenteric arteries,[4],minimal effects; also recorded: little relaxation
zinc bis(histidinate),Mean arterial pressure,[5],expected decrease in arterial pressure was not observed
same,Mean arterial pressure,[5]; [7],does not change mean arterial pressure
same,Relaxation of rat mesenteric arteries,[4],showed relaxation; also recorded: greater relaxation
same,Relaxation of rat mesenteric arteries,[4]; listed as zinc-bis-histidinate,dependent on the concentration
same,Cutaneous blood flow (laser Doppler flux),[2],increased cutaneous blood flow
same,Cutaneous blood flow (laser Doppler flux),[2]; [7],caused an increase in cutaneous blood flow
same,Cutaneous blood flow (laser Doppler flux),[2]; listed as zinc bis(histidine),increased blood flow
same,Cerebral cortical microcirculatory perfusion,[6],rescued
same,Renal blood flow,[6],dose-dependent improvement
same,Renal cortical microcirculatory perfusion,[6],rescued
same,Renal medullary microcirculatory perfusion,[6],rescued
same,Renal oxygen delivery,[6],dose-dependent improvement
same,Renal vascular resistance,[6],dose-dependent improvement
same,Systemic mean arterial pressure,[6],without compromising systemic mean arterial pressure
zinc disulfiram,Relaxation of rat mesenteric arteries,[4],showed relaxation
zinc pyrithione,Relaxation of rat mesenteric arteries,[4],showed relaxation
